Measured values as given in PubChem BioAssay AID248 (DTP/NCI, 2004).
Values joined by “and” are separate entries in the source; they are usually repeats but may differ in a detail not shown here. Identical values can stand only once. Inconclusive results and toxic doses are left out. Rule as the data show it: active = T/C of 150% or more; inactive = T/C below 125%.

System: L1210 leukemia ip in BDF1 mice, survival T/C
Assay: NCI In Vivo Anticancer Drug Screen. Data for tumor model L1210 Leukemia (intraperitoneal) in B6D2F1 (BDF1) mice
Settings: endpoint: mean survival time, higher = longer survival
In short: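 In this screen, tumor-bearing mice given compound are compared to those given vehicle, and their survival values are reported as a treated-to-control quotient.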

[1] = dose: 50.0 mg/kg/injection, schedule: Q01DX001 (ip), vehicle: carboxymethylcellulose (CMC)
[2] = dose: 100.0 mg/kg/injection, schedule: Q01DX001 (ip), vehicle: carboxymethylcellulose (CMC)
[3] = dose: 100.0 mg/kg/injection, schedule: Q01DX001 (ip), vehicle: saline
[4] = dose: 100.0 mg/kg/injection, schedule: Q01DX009 (ip), vehicle: saline
[5] = dose: 100.0 mg/kg/injection, schedule: Q04DX003 (ip), vehicle: saline
[6] = dose: 200.0 mg/kg/injection, schedule: Q01DX001 (ip), vehicle: carboxymethylcellulose (CMC)
[7] = dose: 200.0 mg/kg/injection, schedule: Q01DX001 (ip), vehicle: saline
[8] = dose: 200.0 mg/kg/injection, schedule: Q01DX009 (ip), vehicle: saline
[9] = dose: 200.0 mg/kg/injection, schedule: Q04DX003 (ip), vehicle: saline
[10] = dose: 400.0 mg/kg/injection, schedule: Q01DX001 (ip), vehicle: carboxymethylcellulose (CMC)
[11] = dose: 400.0 mg/kg/injection, schedule: Q01DX001 (ip), vehicle: saline
[12] = dose: 400.0 mg/kg/injection, schedule: Q01DX009 (ip), vehicle: saline
[13] = dose: 400.0 mg/kg/injection, schedule: Q04DX003 (ip), vehicle: saline
[14] = dose: 25.0 mg/kg/injection, schedule: Q01DX009 (ip), vehicle: Klucel (hydroxypropylcellulose) (HPC)
[15] = dose: 50.0 mg/kg/injection, schedule: Q01DX009 (ip), vehicle: Klucel (hydroxypropylcellulose) (HPC)
[16] = dose: 100.0 mg/kg/injection, schedule: Q01DX009 (ip), vehicle: Klucel (hydroxypropylcellulose) (HPC)
[17] = dose: 200.0 mg/kg/injection, schedule: Q01DX009 (ip), vehicle: Klucel (hydroxypropylcellulose) (HPC)
[18] = dose: 100.0 mg/kg/injection, schedule: Q04DX003 (ip), vehicle: saline with Tween-80

Measured: T/C

CC(=N/NC(N)=S)/C(C)=N/NC(N)=S
inactive: dose: 15.0 mg/kg/injection, schedule: Q01DX Z (ip), vehicle: carboxymethylcellulose (CMC) 97 % of control | dose: 30.0 mg/kg/injection, schedule: Q01DX Z (ip), vehicle: carboxymethylcellulose (CMC) 97 % of control | [1] 95 % of control | dose: 60.0 mg/kg/injection, schedule: Q01DX Z (ip), vehicle: carboxymethylcellulose (CMC) 101 % of control and 91 % of control | [2] 87 % of control | [3] 110 % of control | [4] 91 % of control | [5] 98 % of control | dose: 120.0 mg/kg/injection, schedule: Q01DX Z (ip), vehicle: carboxymethylcellulose (CMC) 95 % of control | [6] 87 % of control | [7] 106 % of control | [8] 88 % of control | [9] 86 % of control | dose: 240.0 mg/kg/injection, schedule: Q01DX Z (ip), vehicle: carboxymethylcellulose (CMC) 93 % of control | dose: 240.0 mg/kg/injection, schedule: Q01DX Z (oral), vehicle: carboxymethylcellulose (CMC) 105 % of control | [10] 89 % of control | [11] 101 % of control | [12] 93 % of control | [13] 91 % of control | dose: 480.0 mg/kg/injection, schedule: Q01DX Z (ip), vehicle: carboxymethylcellulose (CMC) 87 % of control | dose: 480.0 mg/kg/injection, schedule: Q01DX Z (oral), vehicle: carboxymethylcellulose (CMC) 102 % of control | dose: 960.0 mg/kg/injection, schedule: Q01DX Z (oral), vehicle: carboxymethylcellulose (CMC) 102 % of control | dose: 1920.0 mg/kg/injection, schedule: Q01DX Z (oral), vehicle: carboxymethylcellulose (CMC) 111 % of control

Cn1c2ccccc2c2cc3cnccc3cc21
inactive: dose: 37.5 mg/kg/injection, schedule: Q04DX003 (ip), vehicle: Klucel (hydroxypropylcellulose) (HPC) 102 % of control | dose: 75.0 mg/kg/injection, schedule: Q04DX003 (ip), vehicle: Klucel (hydroxypropylcellulose) (HPC) 105 % of control | dose: 150.0 mg/kg/injection, schedule: Q04DX003 (ip), vehicle: Klucel (hydroxypropylcellulose) (HPC) 106 % of control | dose: 300.0 mg/kg/injection, schedule: Q04DX003 (ip), vehicle: Klucel (hydroxypropylcellulose) (HPC) 111 % of control

CC(C)=CCN1CCC2(C)c3cc(O)ccc3CC1C2C (stereo not drawn)
inactive: dose: 15.62 mg/kg/injection, schedule: Q04DX003 (ip), vehicle: Klucel (hydroxypropylcellulose) (HPC) 96 % of control | [14] 110 % of control | dose: 31.25 mg/kg/injection, schedule: Q04DX003 (ip), vehicle: Klucel (hydroxypropylcellulose) (HPC) 100 % of control | [15] 110 % of control | dose: 62.5 mg/kg/injection, schedule: Q04DX003 (ip), vehicle: Klucel (hydroxypropylcellulose) (HPC) 100 % of control | [16] 110 % of control | dose: 125.0 mg/kg/injection, schedule: Q04DX003 (ip), vehicle: Klucel (hydroxypropylcellulose) (HPC) 94 % of control | [17] 98 % of control | dose: 250.0 mg/kg/injection, schedule: Q04DX003 (ip), vehicle: Klucel (hydroxypropylcellulose) (HPC) 102 % of control

Cc1cn(C2OC(C(O)C(N)=O)C(O)C2O)c(=O)[nH]c1=O (stereo not drawn)
inactive: [3] 97 % of control | [7] 114 % of control | [11] 101 % of control

O=C(/C=C/c1ccc2c(c1)OCO2)c1ccc(OCc2ccccc2)cc1
inactive: dose: 25.0 mg/kg/injection, schedule: Q04DX002 (ip), vehicle: saline 111 % of control | dose: 50.0 mg/kg/injection, schedule: Q04DX002 (ip), vehicle: saline 108 % of control | dose: 100.0 mg/kg/injection, schedule: Q04DX002 (ip), vehicle: saline 118 % of control | dose: 200.0 mg/kg/injection, schedule: Q04DX002 (ip), vehicle: saline 96 % of control | dose: 400.0 mg/kg/injection, schedule: Q04DX002 (ip), vehicle: saline 92 % of control

O=C1c2ccccc2-c2ccc(NC(=O)C(F)(F)F)cc21
inactive: dose: 100.0 mg/kg/injection, schedule: Q01DX001 (ip), vehicle: saline with Tween-80 92 % of control | dose: 200.0 mg/kg/injection, schedule: Q01DX001 (ip), vehicle: saline with Tween-80 90 % of control | dose: 400.0 mg/kg/injection, schedule: Q01DX001 (ip), vehicle: saline with Tween-80 92 % of control

CC(=O)c1cc(I)c(O)c2ncccc12
inactive: dose: 6.25 mg/kg/injection, schedule: Q01DX009 (ip), vehicle: saline with Tween-80 91 % of control | dose: 6.25 mg/kg/injection, schedule: Q04DX003 (ip), vehicle: saline with Tween-80 95 % of control | dose: 12.5 mg/kg/injection, schedule: Q01DX009 (ip), vehicle: saline with Tween-80 91 % of control | dose: 12.5 mg/kg/injection, schedule: Q04DX003 (ip), vehicle: saline with Tween-80 106 % of control | dose: 25.0 mg/kg/injection, schedule: Q01DX009 (ip), vehicle: saline with Tween-80 89 % of control | dose: 25.0 mg/kg/injection, schedule: Q04DX003 (ip), vehicle: saline with Tween-80 116 % of control and 91 % of control | [18] 107 % of control

C=C(C)C1CNC(C(=O)O)C1CC(=O)O (stereo not drawn)
inactive: dose: 6.25 mg/kg/injection, schedule: Q01DX009 (ip), vehicle: saline sonified 102 % of control | dose: 12.5 mg/kg/injection, schedule: Q01DX009 (ip), vehicle: saline sonified 86 % of control

COc1ccc(/C=C/C(=O)c2ccc(OC)c(OC)c2)cc1O
inactive: [4] 96 % of control | [5] 95 % of control | [8] 120 % of control | [9] 98 % of control | [12] 91 % of control | [13] 95 % of control

CC1CCCC[N-]1.CC1CCCC[N-]1.CC1CCCC[N-]1.CC1CCCC[N-]1.N#CS.[Zn+2] (stereo not drawn)
inactive: [3] 93 % of control | [7] 103 % of control

Cc1c(Cl)cccc1-n1c(C)nc2ccccc2c1=O
inactive: [1] 93 % of control | [2] 98 % of control | [6] 93 % of control | [10] 102 % of control

CCCCC/C(=N/N)c1ccc2cc3c(cc2c1)CCCC3
inactive: [3] 97 % of control | [7] 95 % of control | [11] 90 % of control

C[N+](C)(C)CCN=C(N)N[N+](=O)[O-]
inactive: [4] 97 % of control | [5] 97 % of control | [8] 99 % of control | [9] 98 % of control | [13] 98 % of control

Nc1ccc(Cl)c(Cl)c1
inactive: [1] 98 % of control | dose: 50.0 mg/kg/injection, schedule: Q01DX009 (ip), vehicle: alcohol 101 % of control | dose: 50.0 mg/kg/injection, schedule: Q01DX009 (ip), vehicle: saline with Tween-80 92 % of control | dose: 50.0 mg/kg/injection, schedule: Q04DX003 (ip), vehicle: saline with Tween-80 104 % of control | [2] 93 % of control | dose: 100.0 mg/kg/injection, schedule: Q01DX009 (ip), vehicle: alcohol 109 % of control | dose: 100.0 mg/kg/injection, schedule: Q01DX009 (ip), vehicle: saline with Tween-80 94 % of control | dose: 100.0 mg/kg/injection, schedule: Q04DX003 (ip), vehicle: alcohol 114 % of control | [18] 104 % of control | [6] 95 % of control | dose: 200.0 mg/kg/injection, schedule: Q01DX009 (ip), vehicle: alcohol 90 % of control | dose: 200.0 mg/kg/injection, schedule: Q01DX009 (ip), vehicle: saline with Tween-80 95 % of control | dose: 200.0 mg/kg/injection, schedule: Q04DX003 (ip), vehicle: alcohol 97 % of control | dose: 200.0 mg/kg/injection, schedule: Q04DX003 (ip), vehicle: saline with Tween-80 104 % of control

Cc1cc(C)c(NC(=O)Nc2cccc3ccccc23)c(C)c1
inactive: [14] 95 % of control | [15] 96 % of control | [16] 96 % of control and 103 % of control | dose: 100.0 mg/kg/injection, schedule: Q04DX003 (ip), vehicle: Klucel (hydroxypropylcellulose) (HPC) 96 % of control | [17] 92 % of control | dose: 200.0 mg/kg/injection, schedule: Q04DX003 (ip), vehicle: Klucel (hydroxypropylcellulose) (HPC) 93 % of control | dose: 400.0 mg/kg/injection, schedule: Q01DX009 (ip), vehicle: Klucel (hydroxypropylcellulose) (HPC) 91 % of control | dose: 400.0 mg/kg/injection, schedule: Q04DX003 (ip), vehicle: Klucel (hydroxypropylcellulose) (HPC) 96 % of control
